Values of other authors, collected in US20090192228A1 (ACTAVIS GROUP PTC EHF, priority 2008, published 2009).

Conditions: compared with oxybutynin

In the case of `CC(C)N(CCC(c1ccccc1)c1cc(CO)ccc1O)C(C)C` (stereo not shown), the “Side-effects relative to oxybutynin, particularly propensity to cause dry mouth” value is listed as “considerably fewer side-effects”.
